From patent US20230293407A1, “Compositions Comprising (Bio)-Alkanediols with Antimicrobials for Product Protection” (Symrise AG, priority 2020, published 2023)

How the values were obtained:
Staphylococcus aureus = test: preservation efficacy test (PET), European Pharmacopoeia 5.1.3; format: cell-based; settings: Staphylococcus aureus (SA); for number of microorganisms, 14 days: 14 days after inoculation; for number of microorganisms, 28 days: 28 days after inoculation; for number of microorganisms, 7 days: 7 days after inoculation
Escherichia coli = test: as above; format: cell-based; settings: PET, Escherichia coli (EC); for number of microorganisms, 2 days: 2 days after inoculation; for number of microorganisms, 7 days: 7 days after inoculation; for number of microorganisms, 14 days: 14 days after inoculation; for number of microorganisms, 28 days: 28 days after inoculation
Candida albicans = test: as above; format: cell-based; settings: Candida albicans (CA); for number of microorganisms, 28 days: 28 days after inoculation
Aspergillus brasiliensis = test: as above; format: cell-based; settings: Aspergillus brasiliensis (AB); for number of microorganisms, 14 days: 14 days after inoculation; for number of microorganisms, 28 days: 28 days after inoculation
yeast = test: preservation efficacy test (PET), overview of the effect against yeast; format: cell-based, Candida albicans; settings: PET in a shampoo formulation, result in words on Table 8
[1] = maximum water solubility of alkanediols, visual observation; format: physicochemical; settings: ambient temperature after 24 h storage at 5° C.
Description: The water solubility of a substance is the saturation mass concentration of the substance in water at a given temperature. The determination of the solubility in water relates to essentially pure substances which are stable in water and not volatile. The determination of the water solubility of the alkanediols is further described in the following Example 2.
For the determination of the maximum water solubility of an alkanediol, water and different concentrations of the respective alkanediol were blended by stirring. […] The determination of whether the alkanediol has dissolved in water is based entirely on visual observation.

[2] = PET in shampoo, listed as 0,1% 2,3 Nonanediol

Row | Structure (SMILES) | number of microorganisms, 14 days (Staphylococcus aureus; PET in shampoo) | number of microorganisms, 28 days (Staphylococcus aureus; PET in shampoo) | number of microorganisms, 7 days (Staphylococcus aureus; PET) | number of microorganisms, 14 days (Staphylococcus aureus; PET) | number of microorganisms, 28 days (Staphylococcus aureus; PET) | number of microorganisms, 2 days (Escherichia coli) | number of microorganisms, 7 days (Escherichia coli) | number of microorganisms, 14 days (Escherichia coli) | number of microorganisms, 28 days (Escherichia coli) | number of microorganisms, 28 days (Candida albicans; PET in shampoo) | number of microorganisms, 28 days (Candida albicans; PET) | number of microorganisms, 14 days (Aspergillus brasiliensis; [2]) | number of microorganisms, 28 days (Aspergillus brasiliensis; [2]) | number of microorganisms, 14 days (Aspergillus brasiliensis; PET) | antimicrobial efficacy against yeast (yeast) | Maximum solubility in water [1] | number of microorganisms, 2 days (Staphylococcus aureus; PET, 2 days after inoculation) | number of microorganisms, 7 days (Candida albicans; PET, 7 days after inoculation) | number of microorganisms, 14 days (Candida albicans; PET, 14 days after inoculation) | number of microorganisms, 28 days (Aspergillus brasiliensis; PET)
1 | CCCCCCC(O)C(C)O (stereo not shown) [2,3-nonanediol] | 1 | 1 | 66.000 | 1 | 1 | 810.000 | 27.000 | 1.100 | 1 | 1 | 970.000 | 680.000 | 530.000 | 890.000 | antimicrobial efficacy | 0.3 % by weight |  |  |  | 
2 | CCCC(O)CO (stereo not shown) [Hydrolite ® 5 green] |  |  |  |  |  |  |  |  |  |  |  |  |  |  |  | 50 % by weight |  |  |  | 
3 | CCCCCCCC(O)CO (stereo not shown) [1,2-Nonanediol] |  |  | 1 | 1 | 1 | 6.700 | 1 | 1 | 1 |  | 1 |  |  |  |  | 0.1 % by weight | 2.300 | 120.000 | 890 | 900.000
4 | CCCCC(O)CO (stereo not shown) [Hydrolite ® 6] |  |  |  |  |  |  |  |  |  |  |  |  |  |  |  | 50 % by weight |  |  |  | 
